Assay results: US11970521B2, “Neuroprotective beta amyloid core peptides and peptidomimetic derivatives” (priority 2016, dated 2024)
Where no end group is shown, it is not given here. [ ]: non-standard residue; d: D form.

How the values were obtained:
[1] = tested on: NG108-15 cells expressing α4β2-nAChRs; assay: Cell death (apoptosis) TUNEL assay, α4β2-nAChR-transfected NG108-15 cells; assay type: cell-based, rodent; conditions: nM co-treatment on day 1, 2 or 3 after start of daily Aβ1-42; FIG. 14A; p<0.0001
Protocol: (§1) Neuroblestoma Clonal Cell Culture and Transfection. Rodent hybrid neuroblastoma NG108-15 cells were used as a model nerve cell system allowing reconstitution with defined target receptors for Aβ. The cells were cultured in Dulbecco's modified Eagle's medium (DMEM) containing 15% fetal bovine serum (FBS) and differentiated in the presence of reduced serum (1% FBS) and 1 mM dibutyryl cyclic AMP for 72 h, Expression vectors (pcDNA3.1) containing mouse sequences for α4 and β2 nAChR subunits (1:4 ratio respectively) were transiently transfected into the cells using FuGENE HD (ThernioFisher, catalog #PRE2311) for 48 h. Mock-transfected NG108-15 cells, exposed only to FuGENE HO and not plasmid DNA, were used as controls.
Cell Death (Apoptosis) Assay. Cells were plated, differentiated and treated for either 3 or 4 days prior to assay. Apoptotic cells were detected as DNA fragmentation by Click-IT TUNEL Alexa fluor 488. In brief, the cells were treated for four days, exchanging media each day. After the fourth day of treatment, the cells were fixed with freshly prepared 4% paraformaldehyde in PBS at room temperature for 20 min and permeabilized with Triton X-100 (0.25% in PBS) for another 20 min. The cultures were then washed twice and incubated with 50 μL of terminal deoxynucleotidyi transferase reaction buffer (Component A) for 10 min at room temperature. […]

[2] = tested on: NG108-15 cells expressing α4β2-nAChRs; assay: Cell stress (ROS) assay, α4β2-nAChR-transfected differentiated NG108-15 cells treated with Aβ1-42; assay type: cell-based, rodent; conditions: for Aβ1-42-induced ROS, co-treatment with stabilized peptides: daily 100 nM with 100 nM Aβ1-42, FIG. 9B, p<0.05 vs. Aβ1-42 alone
Description: (§2) In Vitro Neuronal Models. The studies were, performed on the NG108-15 rodent hybrid neuroblastoma cell line and primary hippocampal neuron cultures. The cell line can be differentiated, yielding axonal neurites with presynaptic-like varicosities that have the ability to release acetylcholine via exocytosis in response to stimulation. […] The primary hippocampal neuron cultures provide a physiologically relevant model.
as §1
Cell Stress Assays. Cells were plated, differentiated and treated for 3 days poor to assay. Cell count and fluorescence intensity of reactive oxygen species (ROS)-positive cells were assessed as a means to measure cellular oxidative stress using an Image-IT® LIVE Green Reactive Oxygen Species Detection Kit. In brief, the cells were treated for three days for NG108-15 cultures end five or ten days for primary hippocampal neuronal cultures. The media was changed every day, thus replenishing with fresh Aβ every 24 h, unless otherwise noted. Thereafter, the cells were incubated with carboxy-H2DCFDA (component A) at 37° C. for 30 min. During the last 5 min of incubation, 2 μg/ml of HOECHST stain (component B) was added to assess, in parallel, the integrity of the cell nuclei. The cells were washed twice with HBS and visualized using an Olympus IX81 epifluorescence microscope at excitation/emission of 495) 529 nm (ROS) and 350/461 nm (HOECHST), respectively.

[3] = tested on: NG108-15 cells expressing α4β2-nAChRs; assay: Cell survival (daily cell counts), NG108-15 cells with α4β2-nAChRs; assay type: cell-based, rodent; conditions: 100 nM co-treatment with 100 nM Aβ1-42; FIG. 10A; p<0.0001
Protocol: Neuroblestoma Clonal Cell Culture and Transfection. Rodent hybrid neuroblastoma NG108-15 cells were used as a model nerve cell system allowing reconstitution with defined target receptors for Aβ. […] Mock-transfected NG108-15 cells, exposed only to FuGENE HO and not plasmid DNA, were used as controls.
(§3) Cell Survival. Cell survival was determined by counting cells everyday for 7 or 10 days of treatment. For each condition, all cells in 5 random fields of view were counted and averaged. Percent cell death was calculated based on daily cell counts as a proportion of starting cell count numbers (i.e. day 0).

[4] = tested on: mock-transfected NG108-15 cells; assay: Cell stress (ROS) assay, mock-transfected NG108-15 cells (absent nAChRs) treated with μM Aβ1-42; assay type: cell-based, rodent; conditions: co-treatment with nM-μM concentrations and 1 μM Aβ1-42; FIG. 6A; p<0.0001
Description: as §2, §1
Cell Stress Assays. […] Cell count and fluorescence intensity of reactive oxygen species (ROS)-positive cells were assessed as a means to measure cellular oxidative stress using an Image-IT® LIVE Green Reactive Oxygen Species Detection Kit. […]

[5] = tested on: mock-transfected NG108-15 cells; assay: Cell death (apoptosis) TUNEL assay, NG108-15 cells without nAChRs; assay type: cell-based; conditions: nM-μM co-treatment over four days with 1 μM Aβ1-42; FIG. 14B; trend of greater reduction at μM
Protocol: as §1

[6] = tested on: primary hippocampal neurons; assay: Cell survival (cell counts), primary hippocampal neurons; assay type: cell-based, mouse; conditions: 1 μM with 1 μM Aβ1-42; FIG. 10B; p<0.0001
Protocol: as §3

[7] = tested on: primary hippocampal neurons; assay: Cell stress (ROS) assay in primary hippocampal neuron cultures; assay type: cell-based, mouse; conditions: 1 μM with 1 μM Aβ1-42, 5 or 10 days; p<0.0001
Description: Hippocampal Neuron Culture. All animal procedures followed an tACUC-approved protocol in accordance with animal welfare guidelines, Hippocampal neuron cultures even prepared from neonatal mouse pups (0-2d old) of either gender (roughly equivalent numbers) obtained from established colonies of wild-type B6.SJL (background) mice. Following rapid decapitation, brains were removed into ice-cold Neurobasal A medium (NB) containing B-27 supplement, 5% fetal bovine serum and Gentamicin (serum NB). Hippocampi were then isolated under a stereomicroscope. The hippocampi were digested with papain (Worthington, catalog #35N16202) in Hanks with 10 mM cysteine at 37° C. for 15 mins. The preparations were washed by centrifugation in serum NB. The cells were dissociated using sequential trituration with polished Pasteur pipettes of decreasing diameter and collected by low-speed centrifugation. The dissociated cells were preplated in standard tissue culture dishes to remove adherent non-neuronal cells (glia; fibroblasts) for 10-15 mins. […]

[8] = biological target: T1, α4β2-nAChRs (Mus musculus, UniProt O70174+Q9ERK7); assay: Ca2+ imaging (Fluo-4) in varicosities of NG108-15 cells expressing α4β2-nAChRs; assay type: cell-based; conditions: 100 nM; FIG. 13B
T1 construct: expressed in transfected cells; host or cells: differentiated NG108-15 rodent hybrid neuroblastoma cells, pcDNA3.1 vectors, transient transfection with FuGENE HD
Protocol: as §1
Ca^2+ Imaging Fluo-4, a Ca^2+ indicator dye, was loaded into cells on coverslips and visualization of [Ca^2+] was done via a Nikon PCM 2000 Cameleon AOTF confocal microscope. Each time-series was normalized to baseline fluorescence intensity at time zero (F/F0). After recording a baseline image series, each treatment was perfused over cells for 2.5 minutes or 15 minutes and quantification of relative fluorescence changes was analyzed through imageJ.

T1 sequence (O70174 31-629): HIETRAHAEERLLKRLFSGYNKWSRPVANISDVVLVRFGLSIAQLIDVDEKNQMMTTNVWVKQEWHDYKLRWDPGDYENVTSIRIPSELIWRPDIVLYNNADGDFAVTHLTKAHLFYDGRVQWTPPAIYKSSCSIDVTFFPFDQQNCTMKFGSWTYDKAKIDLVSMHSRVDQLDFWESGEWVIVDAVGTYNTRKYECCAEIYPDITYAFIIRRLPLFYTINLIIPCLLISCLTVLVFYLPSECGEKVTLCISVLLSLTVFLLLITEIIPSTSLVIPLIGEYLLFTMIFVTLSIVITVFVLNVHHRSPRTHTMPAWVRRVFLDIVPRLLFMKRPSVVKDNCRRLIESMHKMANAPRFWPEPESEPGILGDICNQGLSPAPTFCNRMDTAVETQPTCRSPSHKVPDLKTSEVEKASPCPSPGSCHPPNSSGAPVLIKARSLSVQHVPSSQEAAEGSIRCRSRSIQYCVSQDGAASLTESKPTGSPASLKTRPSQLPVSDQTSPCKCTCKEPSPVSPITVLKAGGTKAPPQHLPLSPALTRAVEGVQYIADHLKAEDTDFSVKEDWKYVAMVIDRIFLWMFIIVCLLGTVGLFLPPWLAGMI
T1 sequence (Q9ERK7 26-501): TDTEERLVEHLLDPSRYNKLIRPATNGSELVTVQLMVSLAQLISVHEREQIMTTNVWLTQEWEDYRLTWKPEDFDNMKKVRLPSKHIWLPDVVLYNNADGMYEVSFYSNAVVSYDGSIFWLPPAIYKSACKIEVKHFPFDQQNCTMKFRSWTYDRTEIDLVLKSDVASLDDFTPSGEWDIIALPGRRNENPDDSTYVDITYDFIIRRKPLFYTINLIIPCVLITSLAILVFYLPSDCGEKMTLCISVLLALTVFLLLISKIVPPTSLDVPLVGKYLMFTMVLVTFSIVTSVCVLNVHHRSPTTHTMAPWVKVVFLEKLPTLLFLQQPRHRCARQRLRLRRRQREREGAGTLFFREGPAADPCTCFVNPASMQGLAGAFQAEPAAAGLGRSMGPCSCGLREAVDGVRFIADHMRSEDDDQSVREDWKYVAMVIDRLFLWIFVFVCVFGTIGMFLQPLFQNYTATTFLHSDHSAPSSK

Row | Substance | Aβ1-42-induced apoptosis (TUNEL staining) [1] | Aβ1-42-induced ROS, co-treatment or post-treatment (rescue) ([2]; nM concentrations, co-treatment or rescue for 3-, 2- or 1-day, 100 nM Aβ1-42, FIG. 5A, p<0.0001) | Aβ1-42-induced cell death at 7 days, co-treatment [3] | Aβ1-42-induced oxidative stress (ROS) in absence of nAChRs [4] | Aβ1-42-induced DNA-fragmentation in absence of nAChRs [5] | Aβ1-42-induced cell death over 10-day treatments, co-treatment [6] | Aβ1-42-induced ROS in primary neurons, co-treatment [7] | Aβ1-42-induced ROS, co-treatment with stabilized peptides [2] | Average peak Ca2+ response relative to N-Aβcore [8]
1 | Tyrosine-Glutamate-Valine-Histidine-Histidine-Glutamine [N-Aβcore] | reduced apoptosis compared to Aβ1-42 alone | reduced Aβ1-42-induced ROS back to baseline levels | able to fully protect against Aβ1-42-induced cell death | reduced this oxidative stress compared to Aβ1-42 alone | reduced DNA-fragmentation compared to Aβ1-42 alone | protected primary hippocampal neurons against β1-42-induced cell death | reduced the levels of ROS down to untreated (baseline) levels | – | –
2 | D-[Aβcore]: N-Aβcore converted from L-configuration to D-configuration for each amino acid ([dY][dE][dV][dH][dH][dQ]) | – | – | – | – | – | – | – | reduces ROS | retains activity
3 | Capped-D-[Aβcore]: D-enantiomer N-Aβcore with N-terminal acetylation and C-terminal amidation (Ac-[dY][dE][dV][dH][dH][dQ]-NH2; SMILES CC(=O)N[C@H](Cc1ccc(O)cc1)C(=O)N[C@H](CCC(=O)O)C(=O)N[C@@H](C(=O)N[C@H](Cc1c[nH]cn1)C(=O)N[C@H](Cc1c[nH]cn1)C(=O)N[C@H](CCC(N)=O)C(N)=O)C(C)C) | – | – | – | – | – | – | – | reduces ROS | retains activity
4 | capped-N-Aβcore: N-Aβcore with N-terminus capped with an acetyl group and C-terminus with an amide group (Ac-YEVHHQ-NH2) | – | – | – | – | – | – | – | reduces ROS | retained its potent activity
